Reference: patent US11969428B2, “Methods and pharmaceutical compositions for treating lymphoid malignancy” (priority 2011, dated 2024)

Experiments:
Assay in all cases: Ambit KinomeScan screening
Format in all cases: binding
Conditions in all cases: CAL-130 10 μM
[1] = target: T1, ABL1(F317L) (Homo sapiens, UniProt P00519, F317L)
T1 construct: unspecified tag ("tagged kinases"); purchased Ambit (KinomeScan screening)
Summary of the method: (§1)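 Tagged kinases are exposed to an immobilized bait ligand with CAL-130 (10 μM) present. Kinase binding to the bait is then quantified relative to control. Results are given as % of control, where over 35% is scored as no hit.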

[2] = target: T2, ACVRL1 (Homo sapiens, UniProt P37023)
T2 construct: purchased Ambit (KinomeScan screening)
Summary of the method: as §1

[3] = target: T3, ADCK4 (Homo sapiens, UniProt Q96D53)
T3 construct: purchased Ambit (KinomeScan screening)
T3 sequence (Q96D53 whole entry): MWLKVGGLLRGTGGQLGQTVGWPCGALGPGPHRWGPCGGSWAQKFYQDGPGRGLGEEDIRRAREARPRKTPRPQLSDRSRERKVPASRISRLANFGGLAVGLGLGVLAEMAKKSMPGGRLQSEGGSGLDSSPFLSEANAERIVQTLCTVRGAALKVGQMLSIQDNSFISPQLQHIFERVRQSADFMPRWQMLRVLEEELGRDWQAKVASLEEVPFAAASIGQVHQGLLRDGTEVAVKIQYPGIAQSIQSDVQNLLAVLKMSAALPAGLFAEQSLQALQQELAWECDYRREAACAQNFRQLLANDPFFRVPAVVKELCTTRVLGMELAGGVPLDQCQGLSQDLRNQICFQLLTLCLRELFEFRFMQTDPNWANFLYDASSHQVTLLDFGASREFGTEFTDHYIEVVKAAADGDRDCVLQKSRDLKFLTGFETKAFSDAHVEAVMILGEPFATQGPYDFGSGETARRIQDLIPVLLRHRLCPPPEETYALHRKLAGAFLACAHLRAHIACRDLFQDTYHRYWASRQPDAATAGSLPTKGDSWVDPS
Summary of the method: as §1

[4] = target: T4, BIKE (Homo sapiens, UniProt Q9NSY1)
T4 construct: purchased Ambit (KinomeScan screening service)
Summary of the method: as §1

[5] = target: T5, CAMK2A (Homo sapiens, UniProt Q9UQM7)
T5 construct: unspecified tag ("tagged kinases"); purchased Ambit (KinomeScan screening)
Summary of the method: as §1

[6] = target: T6, CDK8 (Homo sapiens, UniProt P49336)
T6 construct: purchased Ambit (KinomeScan screening service)
Summary of the method: as §1

[7] = target: T7, CSNK1A1L (Homo sapiens, UniProt Q8N752)
T7 construct: purchased Ambit (KinomeScan screening service)
Summary of the method: as §1

[8] = target: T8, DCAMKL2 (Homo sapiens, UniProt Q8N568)
T8 construct: unspecified tag ("tagged kinases"); purchased Ambit (KinomeScan screening service)
Summary of the method: as §1

[9] = target: T9, FGR (Homo sapiens, UniProt P09769)
T9 construct: unspecified tag; purchased Ambit (KinomeScan screening service)
Summary of the method: as §1

[10] = target: T10, GAK (Homo sapiens, UniProt O14976)
T10 construct: unspecified tag ('tagged kinases'); purchased Ambit (KinomeScan screening service)
Summary of the method: as §1

[11] = target: T11, HIPK1 (Homo sapiens, UniProt Q86Z02)
T11 construct: unspecified tag ('tagged kinases'); purchased Ambit (KinomeScan screening service)
Summary of the method: as §1

[12] = target: T12, HIPK3 (Homo sapiens, UniProt Q9H422)
T12 construct: Ambit (KinomeScan screening)
Summary of the method: as §1

[13] = target: T13, ITK (Homo sapiens, UniProt Q08881)
T13 construct: purchased Ambit (KinomeScan screening)
Summary of the method: as §1

[14] = target: T14, JNK1 (Homo sapiens, UniProt P45983)
T14 construct: purchased Ambit (KinomeScan screening)
T14 sequence (P45983 whole entry): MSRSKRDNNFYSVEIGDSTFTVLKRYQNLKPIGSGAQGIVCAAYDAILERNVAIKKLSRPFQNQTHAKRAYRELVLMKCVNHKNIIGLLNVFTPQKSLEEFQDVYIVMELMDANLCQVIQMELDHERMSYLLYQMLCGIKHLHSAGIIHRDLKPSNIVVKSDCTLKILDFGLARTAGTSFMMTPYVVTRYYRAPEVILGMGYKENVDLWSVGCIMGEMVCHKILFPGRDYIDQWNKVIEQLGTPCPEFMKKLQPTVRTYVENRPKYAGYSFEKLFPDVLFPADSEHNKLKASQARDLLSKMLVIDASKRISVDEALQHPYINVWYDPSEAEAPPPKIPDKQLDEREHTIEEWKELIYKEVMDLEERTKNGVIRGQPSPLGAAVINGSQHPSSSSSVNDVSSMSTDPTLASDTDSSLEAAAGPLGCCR
Summary of the method: as §1

[15] = target: T15, KIT (Homo sapiens, UniProt P10721)
T15 construct: purchased Ambit (KinomeScan screening)
Summary of the method: as §1

[16] = target: T16, KIT(V559D, V654A) (Homo sapiens, UniProt P10721, V559D/V654A)
T16 construct: unspecified tag ('tagged kinases'); purchased Ambit (KinomeScan screening service)
Summary of the method: as §1

[17] = target: T17, MAP4K5 (Homo sapiens, UniProt Q9Y4K4)
T17 construct: Ambit (KinomeScan screening)
T17 sequence (Q9Y4K4 whole entry): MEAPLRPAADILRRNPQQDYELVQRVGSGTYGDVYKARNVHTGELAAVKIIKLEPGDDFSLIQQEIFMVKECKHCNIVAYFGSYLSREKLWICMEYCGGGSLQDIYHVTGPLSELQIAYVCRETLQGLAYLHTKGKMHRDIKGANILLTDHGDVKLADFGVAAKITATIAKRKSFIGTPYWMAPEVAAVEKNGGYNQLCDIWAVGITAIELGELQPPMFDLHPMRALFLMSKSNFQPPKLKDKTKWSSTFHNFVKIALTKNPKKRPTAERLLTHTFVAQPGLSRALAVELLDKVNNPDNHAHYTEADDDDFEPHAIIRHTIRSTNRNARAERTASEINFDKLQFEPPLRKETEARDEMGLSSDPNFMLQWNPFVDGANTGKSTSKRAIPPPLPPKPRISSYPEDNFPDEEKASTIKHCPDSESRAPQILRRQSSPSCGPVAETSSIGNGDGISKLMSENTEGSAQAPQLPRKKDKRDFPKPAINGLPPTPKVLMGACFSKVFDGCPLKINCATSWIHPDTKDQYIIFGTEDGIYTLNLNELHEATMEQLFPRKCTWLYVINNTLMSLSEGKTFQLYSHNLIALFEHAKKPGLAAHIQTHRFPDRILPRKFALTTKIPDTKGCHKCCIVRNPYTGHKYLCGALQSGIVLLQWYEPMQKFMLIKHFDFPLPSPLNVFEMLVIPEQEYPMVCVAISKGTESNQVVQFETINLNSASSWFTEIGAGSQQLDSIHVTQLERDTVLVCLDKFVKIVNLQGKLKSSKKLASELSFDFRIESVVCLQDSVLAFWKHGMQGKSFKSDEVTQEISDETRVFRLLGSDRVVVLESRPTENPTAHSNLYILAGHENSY
Summary of the method: as §1

[18] = target: T18, MLK2 (Homo sapiens, UniProt Q02779)
T18 construct: unspecified tag ('tagged kinases'); purchased Ambit (KinomeScan screening)
Summary of the method: as §1

[19] = target: T19, MYLK2 (Homo sapiens, UniProt Q9H1R3)
T19 construct: unspecified tag; purchased Ambit (KinomeScan screening panel)
T19 sequence (Q9H1R3 whole entry): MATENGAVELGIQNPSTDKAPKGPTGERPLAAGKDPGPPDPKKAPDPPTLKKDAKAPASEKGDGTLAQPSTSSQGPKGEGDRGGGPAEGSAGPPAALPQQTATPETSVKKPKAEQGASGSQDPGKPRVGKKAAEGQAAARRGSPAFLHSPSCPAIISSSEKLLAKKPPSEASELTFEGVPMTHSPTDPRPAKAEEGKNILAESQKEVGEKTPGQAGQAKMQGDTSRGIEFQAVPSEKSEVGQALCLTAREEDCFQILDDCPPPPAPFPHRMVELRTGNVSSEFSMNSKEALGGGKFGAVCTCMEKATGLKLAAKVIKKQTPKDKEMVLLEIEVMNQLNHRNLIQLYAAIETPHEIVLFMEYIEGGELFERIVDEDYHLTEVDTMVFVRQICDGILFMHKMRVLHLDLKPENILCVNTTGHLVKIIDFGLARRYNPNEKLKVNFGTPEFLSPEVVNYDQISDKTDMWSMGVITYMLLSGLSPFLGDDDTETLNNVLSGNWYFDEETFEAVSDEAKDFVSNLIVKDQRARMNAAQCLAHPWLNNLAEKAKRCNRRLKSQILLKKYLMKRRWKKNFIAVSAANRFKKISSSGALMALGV
Summary of the method: as §1

[20] = target: T20, NEK1 (Homo sapiens, UniProt Q96PY6)
T20 construct: unspecified tag; purchased Ambit (KinomeScan screening panel)
Summary of the method: as §1

[21] = target: T21, NEK9 (Homo sapiens, UniProt Q8TD19)
T21 construct: purchased Ambit (KinomeScan screening service)
T21 sequence (Q8TD19 whole entry): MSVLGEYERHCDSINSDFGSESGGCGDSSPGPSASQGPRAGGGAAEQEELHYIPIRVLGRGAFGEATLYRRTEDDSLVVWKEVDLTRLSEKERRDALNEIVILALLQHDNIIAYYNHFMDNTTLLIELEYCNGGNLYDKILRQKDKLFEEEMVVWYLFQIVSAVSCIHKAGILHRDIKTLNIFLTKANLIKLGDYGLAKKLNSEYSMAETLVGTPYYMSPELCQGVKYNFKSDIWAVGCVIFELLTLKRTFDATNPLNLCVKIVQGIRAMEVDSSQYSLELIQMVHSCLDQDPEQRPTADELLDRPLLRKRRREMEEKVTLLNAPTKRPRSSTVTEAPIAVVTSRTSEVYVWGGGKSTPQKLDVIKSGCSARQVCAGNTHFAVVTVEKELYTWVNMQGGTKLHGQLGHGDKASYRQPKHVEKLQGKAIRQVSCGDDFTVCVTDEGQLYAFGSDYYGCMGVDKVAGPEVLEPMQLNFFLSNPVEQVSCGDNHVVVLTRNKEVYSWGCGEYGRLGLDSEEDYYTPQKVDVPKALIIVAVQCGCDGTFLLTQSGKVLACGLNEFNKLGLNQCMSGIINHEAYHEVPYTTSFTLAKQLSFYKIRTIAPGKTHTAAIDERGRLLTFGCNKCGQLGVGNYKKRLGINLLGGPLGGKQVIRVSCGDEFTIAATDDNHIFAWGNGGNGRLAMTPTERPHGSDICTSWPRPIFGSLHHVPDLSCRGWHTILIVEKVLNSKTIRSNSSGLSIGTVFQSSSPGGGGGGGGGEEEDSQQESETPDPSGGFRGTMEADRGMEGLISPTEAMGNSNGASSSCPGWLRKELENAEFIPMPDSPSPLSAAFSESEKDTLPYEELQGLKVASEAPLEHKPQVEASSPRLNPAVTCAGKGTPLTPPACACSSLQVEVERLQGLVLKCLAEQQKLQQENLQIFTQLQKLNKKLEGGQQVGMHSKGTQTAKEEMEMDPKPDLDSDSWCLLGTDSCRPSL
Summary of the method: as §1

[22] = target: T22, NLK (Homo sapiens, UniProt Q9UBE8)
T22 construct: purchased Ambit (KinomeScan screening service)
Summary of the method: as §1

[23] = target: T23, PAK1 (Homo sapiens, UniProt Q13153)
T23 construct: purchased Ambit (KinomeScan screening service)
Summary of the method: as §1

[24] = target: T24, PDPK1 (Homo sapiens, UniProt O15530)
T24 construct: unspecified tag ('tagged kinases'); purchased Ambit (KinomeScan screening)
Summary of the method: as §1

[25] = target: T25, PIM1 (Homo sapiens, UniProt P11309)
T25 construct: unspecified tag; purchased Ambit (KinomeScan screening panel)
Summary of the method: as §1

[26] = target: T26, PKN2 (Homo sapiens, UniProt Q16513)
T26 construct: purchased Ambit (KinomeScan screening service)
Summary of the method: as §1

[27] = target: T27, PLK4 (Homo sapiens, UniProt O00444)
T27 construct: purchased Ambit (KinomeScan screening service)
Summary of the method: as §1

[28] = target: T28, PRKCE (Homo sapiens, UniProt Q02156)
T28 construct: purchased Ambit (KinomeScan screening service)
Summary of the method: as §1

[29] = target: T29, ROCK1 (Homo sapiens, UniProt Q13464)
T29 construct: unspecified tag (tagged kinase); purchased Ambit (KinomeScan screening)
Summary of the method: as §1

[30] = target: T30, SgK110 (Homo sapiens, UniProt P0C264)
T30 construct: tag, kind not specified; purchased Ambit (KinomeScan screening service)
Summary of the method: as §1

[31] = target: T31, TIE1 (Homo sapiens, UniProt P35590)
T31 construct: unspecified tag (tagged kinase); purchased Ambit (KinomeScan screening)
Summary of the method: as §1

[32] = target: T32, TIE2 (Homo sapiens, UniProt Q02763)
T32 construct: unspecified tag (tagged kinase); purchased Ambit (KinomeScan screening)
Summary of the method: as §1

[33] = target: T33, TNK2 (Homo sapiens, UniProt Q07912)
T33 construct: unspecified tag (tagged kinase); purchased Ambit (KinomeScan screening)
T33 sequence (Q07912 whole entry): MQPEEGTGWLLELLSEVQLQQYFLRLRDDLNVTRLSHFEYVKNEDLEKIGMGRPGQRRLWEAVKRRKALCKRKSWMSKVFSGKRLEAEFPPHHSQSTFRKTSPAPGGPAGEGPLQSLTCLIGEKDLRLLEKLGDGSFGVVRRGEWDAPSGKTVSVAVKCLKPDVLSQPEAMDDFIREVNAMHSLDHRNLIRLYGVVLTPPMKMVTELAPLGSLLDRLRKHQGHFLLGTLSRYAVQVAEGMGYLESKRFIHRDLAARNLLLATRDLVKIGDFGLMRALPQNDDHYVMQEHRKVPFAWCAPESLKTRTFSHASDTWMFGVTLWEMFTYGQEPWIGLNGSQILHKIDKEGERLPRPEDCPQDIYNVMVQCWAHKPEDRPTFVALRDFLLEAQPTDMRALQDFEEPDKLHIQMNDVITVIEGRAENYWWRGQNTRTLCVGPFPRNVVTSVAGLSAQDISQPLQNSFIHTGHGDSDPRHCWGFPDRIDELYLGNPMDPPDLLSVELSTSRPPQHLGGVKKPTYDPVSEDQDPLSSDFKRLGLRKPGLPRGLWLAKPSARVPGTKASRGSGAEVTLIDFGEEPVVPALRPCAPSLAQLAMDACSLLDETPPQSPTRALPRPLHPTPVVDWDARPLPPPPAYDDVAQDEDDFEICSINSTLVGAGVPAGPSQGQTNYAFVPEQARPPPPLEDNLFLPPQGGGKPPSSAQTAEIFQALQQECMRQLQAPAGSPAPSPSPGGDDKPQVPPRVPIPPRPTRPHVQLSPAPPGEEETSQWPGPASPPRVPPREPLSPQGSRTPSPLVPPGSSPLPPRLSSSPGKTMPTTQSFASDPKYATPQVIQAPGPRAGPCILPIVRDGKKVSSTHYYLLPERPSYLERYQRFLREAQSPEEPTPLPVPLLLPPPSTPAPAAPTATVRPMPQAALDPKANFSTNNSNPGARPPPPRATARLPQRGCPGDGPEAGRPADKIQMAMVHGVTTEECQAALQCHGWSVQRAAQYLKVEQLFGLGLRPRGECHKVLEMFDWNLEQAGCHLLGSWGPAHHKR
Summary of the method: as §1

[34] = target: T34, TSSK1B (Homo sapiens, UniProt Q9BXA7)
T34 construct: tag, kind not specified; purchased Ambit (KinomeScan screening service)
Summary of the method: as §1

[35] = target: T35, TYK2(JH2domain) (Homo sapiens, UniProt P29597)
T35 construct: TYK2(JH2domain); tag, kind not specified; purchased Ambit (KinomeScan screening service)
Summary of the method: as §1

[36] = target: T36, WEE1 (Homo sapiens, UniProt P30291)
T36 construct: purchased Ambit (KinomeScan screening service)
T36 sequence (P30291 whole entry): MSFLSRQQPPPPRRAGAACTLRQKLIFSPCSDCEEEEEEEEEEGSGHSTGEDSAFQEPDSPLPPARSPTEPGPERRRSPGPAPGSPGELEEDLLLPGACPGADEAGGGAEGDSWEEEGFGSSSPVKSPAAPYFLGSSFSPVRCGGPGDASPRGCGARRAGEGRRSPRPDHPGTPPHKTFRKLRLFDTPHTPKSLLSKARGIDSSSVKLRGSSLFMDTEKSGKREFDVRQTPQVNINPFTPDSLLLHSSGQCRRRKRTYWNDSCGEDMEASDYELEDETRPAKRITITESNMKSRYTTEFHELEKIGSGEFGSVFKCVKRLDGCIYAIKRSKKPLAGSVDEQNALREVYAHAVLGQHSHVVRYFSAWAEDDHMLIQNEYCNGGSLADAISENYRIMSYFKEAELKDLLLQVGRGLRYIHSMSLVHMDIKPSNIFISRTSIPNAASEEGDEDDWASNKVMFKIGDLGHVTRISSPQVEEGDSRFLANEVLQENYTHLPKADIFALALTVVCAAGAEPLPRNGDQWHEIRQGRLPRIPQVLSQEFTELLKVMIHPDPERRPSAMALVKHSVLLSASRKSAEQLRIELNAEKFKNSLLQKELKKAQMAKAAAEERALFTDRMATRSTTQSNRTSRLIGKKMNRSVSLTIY
Summary of the method: as §1

Measured: Percent of Control Binding

Cc1ccccc1-n1c(C(C)Nc2nc(N)nc3nc[nH]c23)nc2cccc(C)c2c1=O (stereo not drawn) [CAL-130]
100%: all assays above
